Experimental data from ChEMBL document CHEMBL3045844, “Synthetic utility of sydnones: synthesis of pyrazolines derivatized with 1,2,4-triazoles as antihyperglymic, antioxidant agents and their DNA cleavage study” (Med Chem Res, 2012).
Active and inactive are the calls of the source. No cut-off for these calls is given here.

Columns and labels:
[1] = Induction of DNA cleavage at 100 ug after 2 hr by electrophoresis relative to control
[2] = tested on: Radical scavenging activity; test: Antioxidant activity assessed as DPPH radical scavenging activity at 100 ug after 20 min; assay type: functional
[3] = tested on: Radical scavenging activity; test: Antioxidant activity assessed as DPPH radical scavenging activity at 50 ug after 20 min; assay type: functional
[4] = tested on: Radical scavenging activity; test: Antioxidant activity assessed as DPPH radical scavenging activity at 10 ug after 20 min; assay type: functional
[5] = target: T1, Pancreatic alpha-amylase (Homo sapiens) (UniProt P04746); test: Activity of alpha amylase (unknown origin) at 1 mg/ml after 10 min relative to control
T1 sequence (whole entry): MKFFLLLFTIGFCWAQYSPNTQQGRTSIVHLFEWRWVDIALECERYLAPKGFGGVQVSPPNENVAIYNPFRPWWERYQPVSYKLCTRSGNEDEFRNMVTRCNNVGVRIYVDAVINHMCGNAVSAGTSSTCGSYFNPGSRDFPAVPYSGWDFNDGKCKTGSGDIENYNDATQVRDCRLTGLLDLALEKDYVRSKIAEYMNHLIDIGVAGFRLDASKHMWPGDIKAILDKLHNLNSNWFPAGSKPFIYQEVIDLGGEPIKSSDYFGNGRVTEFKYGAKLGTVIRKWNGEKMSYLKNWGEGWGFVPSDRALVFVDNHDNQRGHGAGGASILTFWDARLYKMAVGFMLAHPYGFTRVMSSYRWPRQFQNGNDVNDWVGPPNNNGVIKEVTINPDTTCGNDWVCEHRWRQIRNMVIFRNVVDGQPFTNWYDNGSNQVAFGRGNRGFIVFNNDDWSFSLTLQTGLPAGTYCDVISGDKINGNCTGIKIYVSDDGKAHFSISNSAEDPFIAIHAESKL

| Compound | Activity [1] | Activity [2] | Activity [3] | Activity [4] | Activity [5] |
| --- | --- | --- | --- | --- | --- |
| CC(=O)N1N=C(c2ccc(-n3nc(C)n(N)c3=O)cc2)CC1c1cccc(Cl)c1 (stereo not given) | Active | 73.8% | 63.8% | 15.2% | 96.5% |
| CC(=O)N1N=C(c2ccc(-n3nc(C)n(N)c3=O)cc2)CC1c1ccc(O)cc1 (stereo not given) | Active | 16.9% | 9.03% | 3.08% | 76.7% |
| CC(=O)N1N=C(c2ccc(-n3nc(C)n(N)c3=O)cc2)CC1c1ccc(C)cc1 (stereo not given) | Active | 82.5% | 70.1% | 23% | 96.5% |
| CC(=O)N1N=C(c2ccc(-n3nc(C)n(N)c3=O)cc2)CC1c1ccccc1 (stereo not given) | Active | 56.1% | 30.2% | 24.7% | 129% |
| CC(=O)N1N=C(c2ccc(-n3nc(C)n(N)c3=O)cc2)CC1c1ccccc1Cl (stereo not given) | Active | 78.4% | 67.8% | 20% | 76.7% |
| CC(=O)N1N=C(c2ccc(-n3nc(C)n(N)c3=O)cc2)CC1c1ccc(Cl)cc1 (stereo not given) | Active | 81.5% | 69.9% | 21.7% | 126% |
| COc1ccc(C2CC(c3ccc(-n4nc(C)n(N)c4=O)cc3)=NN2C(C)=O)cc1OC (stereo not given) | Active | 1.67% | 1.18% | 0.48% | 64% |
| CC(=O)N1N=C(c2ccc(-n3nc(C)n(N)c3=O)cc2)CC1c1ccc([N+](=O)[O-])cc1 (stereo not given) | Active | 1.49% | 1.09% | 0.4% | 102% |
| COc1ccc(C2CC(c3ccc(-n4nc(C)n(N)c4=O)cc3)=NN2C(C)=O)cc1 (stereo not given) | Active | 2.4% | 2.28% | 0.6% | 96.5% |
